Values quoted from earlier work in US12097177B2, “Therapeutic method for cat with chronic kidney disease” (Toray Industries, Inc., priority 2021, dated 2024).
Where a name gives a salt, the structure may show the parent alone. Read-outs that look alike come from different tables or passages of the source.

Key:
feline CKD [1] = details: in vivo; cited from earlier work
[2] = humans; cited from earlier work
[3] = rats; cited from earlier work
feline CKD [4] = details: in vivo; cited from earlier work; remark: listed apart in the source
feline CKD [5] = details: in vivo; cited from earlier work; remark: listed apart in the source

SMILES: CCCc1nc2c(C)cc(-c3nc4ccccc4n3C)cc2n1Cc1ccc(-c2ccccc2C(=O)O)cc1 [telmisartan]
- proteinuria (feline CKD [1]): improve proteinuria of feline CKD

SMILES: CC#CC[C@H](C)[C@H](O)/C=C/[C@@H]1[C@H]2c3cccc(CCCC(=O)[O-])c3O[C@H]2C[C@H]1O.[Na+] (single isomer, unassigned) [BPS-314d]
- AUC of plasma BPS-314d when BPS is administered (fraction) [2]: ¼
- Cmax of plasma BPS-314d when BPS is administered (fraction) [2]: ¼
- AUC of plasma BPS-314d when BPS is administered (fraction) [3]: ¼
- Cmax of plasma BPS-314d when BPS is administered (fraction) [3]: ¼

SMILES: CCOC(=O)[C@H](CCc1ccccc1)N[C@H]1CCc2ccccc2N(CC(=O)O)C1=O [Benazepril hydrochloride, benazepril hydrochloride]
- progression of feline CKD stage (feline CKD [4]): has not been found to inhibit progression of feline CKD stage
- proteinuria (feline CKD [4]): lower the severity of proteinuria
- serum creatinine (feline CKD [4]): inhibit elevation in serum creatinine

SMILES: CN1N=C2CCN(C(=O)[C@@H](COCc3ccccc3)NC(=O)C(C)(C)N)C[C@@]2(Cc2ccccc2)C1=O [capromorelin]
- body weight loss (feline CKD [5]): inhibit body weight loss
- overall survival rate or observed survival rate (feline CKD [5]): no improvement in the overall survival rate or the observed survival rate of feline CKD has been demonstrated
